Test results as given in PubChem BioAssay (NCI).
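Protocol summary: plate cells (96-well), add compound at 5 concentrations, incubate 48 h, interpolate endpoints linearly. GI50: concentration for 50% inhibition of growth. TGI marks complete inhibition of growth.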

What was measured:
Test in all cases: NCI anticancer screen, dose series, 48 h
UO-31 renal = tested on: UO-31 renal
OVCAR-5 ovarian = tested on: OVCAR-5 ovarian
SNB-75 CNS = tested on: SNB-75 CNS
SNB-19 CNS = tested on: SNB-19 CNS
SF-295 CNS = tested on: SF-295 CNS
OVCAR-3 ovarian = tested on: OVCAR-3 ovarian
BT-549 breast = tested on: BT-549 breast
HOP-92 NSCLC = tested on: HOP-92 NSCLC
SW-620 colon = tested on: SW-620 colon
NCI-H460 lung = tested on: NCI-H460 lung
HCT-116 colon = tested on: HCT-116 colon
SK-MEL-28 melanoma = tested on: SK-MEL-28 melanoma
LOX IMVI melanoma = tested on: LOX IMVI melanoma
TK-10 renal = tested on: TK-10 renal
EKVX NSCLC = tested on: EKVX NSCLC
KM12 colon = tested on: KM12 colon
SK-MEL-5 melanoma = tested on: SK-MEL-5 melanoma
HS 578T breast = tested on: HS 578T breast
SF-539 CNS = tested on: SF-539 CNS
MDA-MB-435 = tested on: MDA-MB-435
CAKI-1 renal = tested on: CAKI-1 renal
UACC-62 melanoma = tested on: UACC-62 melanoma
NCI-H23 lung = tested on: NCI-H23 lung
IGROV1 ovarian = tested on: IGROV1 ovarian
RXF 393 renal = tested on: RXF 393 renal
OVCAR-4 ovarian = tested on: OVCAR-4 ovarian
MALME-3M melanoma = tested on: MALME-3M melanoma
M14 melanoma = tested on: M14 melanoma
MDA-MB-231 breast = tested on: MDA-MB-231 breast
ACHN renal = tested on: ACHN renal
786-0 renal = tested on: 786-0 renal
HCT-15 colon = tested on: HCT-15 colon
DU-145 prostate = tested on: DU-145 prostate
NCI/ADR-RES ovarian = tested on: NCI/ADR-RES ovarian
SN12C renal = tested on: SN12C renal
A498 renal = tested on: A498 renal
HCC-2998 colon = tested on: HCC-2998 colon

## COc1cc(-c2nc3ccc(C)cc3[nH]2)ccc1OCC(=O)N=Nc1c(O)[nH]c2ccccc12
UO-31 renal
  GI50: 12.5 µM
  TGI: 96.4 µM
OVCAR-5 ovarian
  GI50: 1.83 µM
  TGI: 4.19 µM
SNB-75 CNS
  GI50: 1.07 µM
  TGI: 2.91 µM
SNB-19 CNS
  GI50: 1.83 µM
  TGI: 3.51 µM
SF-295 CNS
  GI50: 1.94 µM
  TGI: 3.82 µM
OVCAR-3 ovarian
  GI50: 1.71 µM
  TGI: 3.21 µM
BT-549 breast
  GI50: 2.26 µM
  TGI: 6.56 µM
HOP-92 NSCLC
  GI50: 1.56 µM
  TGI: 3.28 µM
SW-620 colon
  GI50: 0.769 µM
  TGI: 2.37 µM
NCI-H460 lung
  GI50: 1.85 µM
  TGI: 3.73 µM
HCT-116 colon
  GI50: 0.442 µM
  TGI: 1.66 µM
SK-MEL-28 melanoma
  GI50: 1.77 µM
  TGI: 3.16 µM
LOX IMVI melanoma
  GI50: 0.339 µM
  TGI: 1.29 µM
TK-10 renal
  GI50: 3.21 µM
  TGI: 11.1 µM
EKVX NSCLC
  GI50: 12.7 µM
  TGI: > 100 µM
KM12 colon
  GI50: 1.83 µM
  TGI: 3.54 µM
SK-MEL-5 melanoma
  GI50: 1.82 µM
  TGI: 3.52 µM
HS 578T breast
  GI50: 2 µM
  TGI: 4.77 µM
SF-539 CNS
  GI50: 1.62 µM
  TGI: 3.01 µM
MDA-MB-435
  GI50: 1.63 µM
  TGI: 3 µM
CAKI-1 renal
  GI50: 1.66 µM
  TGI: 3.07 µM
UACC-62 melanoma
  GI50: 1.76 µM
  TGI: 3.31 µM
NCI-H23 lung
  GI50: 1.81 µM
  TGI: 3.48 µM
IGROV1 ovarian
  GI50: 1.73 µM
  TGI: 3.48 µM
RXF 393 renal
  GI50: 1.65 µM
  TGI: 3.17 µM
OVCAR-4 ovarian
  GI50: 1.75 µM
  TGI: 3.25 µM
MALME-3M melanoma
  GI50: 1.68 µM
  TGI: 3.18 µM
M14 melanoma
  GI50: 1.84 µM
  TGI: 3.56 µM
MDA-MB-231 breast
  GI50: 1.64 µM
  TGI: 3.1 µM
ACHN renal
  GI50: 3.39 µM
  TGI: 13.6 µM
786-0 renal
  GI50: 1.76 µM
  TGI: 3.24 µM
HCT-15 colon
  GI50: 4.18 µM
  TGI: > 100 µM
DU-145 prostate
  GI50: 2.05 µM
  TGI: 4.39 µM
NCI/ADR-RES ovarian
  GI50: > 100 µM
  TGI: > 100 µM
SN12C renal
  GI50: 1.68 µM
  TGI: 3.19 µM
A498 renal
  GI50: 2.36 µM
  TGI: 7.46 µM
HCC-2998 colon
  GI50: 1.86 µM
  TGI: 3.31 µM
